Consider three compounds from ChEMBL document CHEMBL1159382, “New antimalarial bis-dehydroaporphine alkaloids from Polyalthia debilis” (J Nat Prod, 2003).

The term IC50 denotes the concentration needed to halve the response being measured.

In brackets after ≈: the same amount, converted by molar mass.

This test concerns Plasmodium falciparum. Briefly: Antimalarial activity against multidrug-resistant Plasmodium falciparum K1 by [3H]hypoxanthine uptake. It counts as functional, organism-based.
Consider `COc1cccc2c1c(-c1c3c4c(cc5c(c4c4cccc(OC)c14)OCO5)CCN3)c1c3c(cc4c(c32)OCO4)CCN1` [BIDEBILINE C], for which 5.4 µg/mL (≈ 9.24 µM) corresponded to half-maximal inhibition (IC50).

Take `C[C@@H]1CC[C@H]2[C@@H](C)C(=O)O[C@@H]3O[C@@]4(C)CC[C@@H]1[C@]32OO4` [ARTEMISININ]: the half-maximal inhibitory concentration (IC50) came out at 0.001 µg/mL (≈ 0.00354 µM).

For the compound `COc1ccc2c(-c3c4c5c(cc6c(c5c5cc(OC)ccc35)OCO6)CCN4)c3c4c(cc5c(c4c2c1)OCO5)CCN3` [BIDEBILINE D], the IC50 worked out at 4.1 µg/mL (≈ 7.01 µM).
